Results published in patent US10292394B2, “Herbicidal compounds” (Syngenta Participations AG, priority 2015, dated 2019).

Experiments:
Assay in all cases: Post-emergence efficacy, glasshouse pot test
Format in all cases: in vivo
Conditions in all cases: post-emergence application, evaluated after 13 days
Lolium perenne (LOLPE) = tested on: Lolium perenne (LOLPE)
Description: (§1) B1 Post-Emergence Efficacy Seeds of a variety of test species are sown in standard soil in pots:—Solanum nigrum (SOLNI), Amaranthus retoflexus (AMARE), Setaria faberi (SETFA), Alopecurus myosuroides (ALOMY), Echinochloa crus-galli (ECHCG), Ipomoea hederacea (IPOHE), Lolium perenne (LOLPE). After 8 days cultivation (post-emergence) under controlled conditions in a glasshouse (at 24/16° C., day/night; 14 hours light; 65% humidity), the plants are sprayed with an aqueous spray solution derived from the formulation of the technical active ingredient in acetone/water (50:50) solution containing 0.5% Tween 20 (polyoxyethylene sorbitan monolaurate, CAS RN 9005-64-5). Compounds are applied at 1000 g/ha and 250 g/ha. The test plants are then grown in a glasshouse under controlled conditions in a glasshouse (at 24/16° C., day/night; 14 hours light; 65% humidity) and watered twice daily. After 13 days, the test is evaluated for the percentage damage caused to the plant. The biological activities are assessed on a five point scale (5=80-100%; 4=60-79%; 3=40-59%; 2=20-39%; 1=0-19%).

Solanum nigrum (SOLNI) = tested on: Solanum nigrum (SOLNI)
Description: as §1

Setaria faberi (SETFA) = tested on: Setaria faberi (SETFA)
Description: as §1

[1] = tested on: Ipomoea hederacea (IPOHE)
Description: as §1

[2] = tested on: Echinochloa crus-galli (ECHCG)
Description: as §1

[3] = tested on: Amaranthus retoflexus (AMARE)
Description: as §1

Row | SMILES | percentage damage caused to the plant, five point scale, LOLPE (Lolium perenne (LOLPE); 250 g/ha) | percentage damage caused to the plant, five point scale, LOLPE (Lolium perenne (LOLPE); 1000 g/ha) | percentage damage caused to the plant, five point scale, SOLNI (Solanum nigrum (SOLNI); 250 g/ha) | percentage damage caused to the plant, five point scale, SOLNI (Solanum nigrum (SOLNI); 1000 g/ha) | percentage damage caused to the plant, five point scale, SETFA (Setaria faberi (SETFA); 250 g/ha) | percentage damage caused to the plant, five point scale, SETFA (Setaria faberi (SETFA); 1000 g/ha) | percentage damage caused to the plant, five point scale, IPOHE ([1]; 250 g/ha) | percentage damage caused to the plant, five point scale, IPOHE ([1]; 1000 g/ha) | percentage damage caused to the plant, five point scale, ECHCG ([2]; 250 g/ha) | percentage damage caused to the plant, five point scale, ECHCG ([2]; 1000 g/ha) | percentage damage caused to the plant, five point scale, AMARE ([3]; 250 g/ha) | percentage damage caused to the plant, five point scale, AMARE ([3]; 1000 g/ha)
1 | O=c1c(-c2c(Cl)ccc(Cl)c2OCc2cnc(Cl)s2)c(O)c2nccnc2n1CC(F)F [Compound 11.19] | 5 (5=80-100%) | 5 (5=80-100%) | 5 (5=80-100%) | 5 (5=80-100%) | 4 (4=60-79%) | 5 (5=80-100%) | 5 (5=80-100%) | 5 (5=80-100%) | 5 (5=80-100%) | 4 (4=60-79%) | 5 (5=80-100%) | 5 (5=80-100%)
2 | C#CCn1c(=O)c(-c2c(Cl)ccc(Cl)c2OCc2cnc(Cl)s2)c(O)c2c(OC)ccnc21 [Compound 17.19] | 4 (4=60-79%) | 5 (5=80-100%) | 5 (5=80-100%) | 5 (5=80-100%) | 5 (5=80-100%) | 5 (5=80-100%) | 5 (5=80-100%) | 5 (5=80-100%) | 5 (5=80-100%) | 5 (5=80-100%) | 5 (5=80-100%) | 5 (5=80-100%)
3 | C#CCn1c(=O)c(-c2c(Cl)ccc(Cl)c2OCc2cnc(Cl)s2)c(O)c2cccnc21 [Compound 1.19] | 5 (5=80-100%) | 5 (5=80-100%) | 5 (5=80-100%) | 5 (5=80-100%) | 4 (4=60-79%) | 5 (5=80-100%) | 5 (5=80-100%) | 5 (5=80-100%) | 3 (3=40-59%) | 5 (5=80-100%) | 4 (4=60-79%) | 5 (5=80-100%)
4 | O=c1c(-c2c(Cl)ccc(Cl)c2OCc2cnc(Cl)s2)c(O)c2cccnc2n1CC(F)F [Compound 3.19] | 4 (4=60-79%) | 5 (5=80-100%) | 5 (5=80-100%) | 5 (5=80-100%) | 4 (4=60-79%) | 5 (5=80-100%) | 5 (5=80-100%) | 5 (5=80-100%) | 3 (3=40-59%) | 4 (4=60-79%) | 5 (5=80-100%) | 5 (5=80-100%)
5 | COc1ccnc2c1c(O)c(-c1c(Cl)ccc(Cl)c1OCc1cnc(Cl)s1)c(=O)n2CC(F)F [Compound 19.19] | 4 (4=60-79%) | 5 (5=80-100%) | 5 (5=80-100%) | 5 (5=80-100%) | 5 (5=80-100%) | 5 (5=80-100%) | 5 (5=80-100%) | 5 (5=80-100%) | 5 (5=80-100%) | 5 (5=80-100%) | 5 (5=80-100%) | 5 (5=80-100%)
6 | C#CCn1c(=O)c(-c2c(Cl)ccc(Cl)c2OCc2cnc(Cl)s2)c(O)c2nccnc21 [Compound 9.19, 7-[3,6-dichloro-2-[(2-chlorothiazol-5-yl)methoxy]phenyl]-8-hydroxy-5-prop-2-ynyl-pyrido[2,3-b]pyrazin-6-one] | 5 (5=80-100%) | 5 (5=80-100%) | 5 (5=80-100%) | 5 (5=80-100%) | 5 (5=80-100%) | 5 (5=80-100%) | 5 (5=80-100%) | 5 (5=80-100%) | 5 (5=80-100%) | 5 (5=80-100%) | 5 (5=80-100%) | 5 (5=80-100%)
